In ChEMBL document CHEMBL3727350, “Agents and methods for treating ischemic and other diseases” (2014):
Calls of active or inactive are those of the source. No cut-off for these calls is given here.

biological target: Transient receptor potential cation channel subfamily M member 7 (Mus musculus) (UniProt Q923J1); experiment: Inhibition of Tet-induced Flag-tagged mouse TRPM7 expressed in HEK293 cells assessed as inhibition of channel-mediated cell death in presence of Mg2+ incubated for 24 to 48 hrs by propidium iodide uptake assay; format: cell-based; parameters: concentration or dose not given beside the values; settings: not given
Sequence (Q923J1 whole entry): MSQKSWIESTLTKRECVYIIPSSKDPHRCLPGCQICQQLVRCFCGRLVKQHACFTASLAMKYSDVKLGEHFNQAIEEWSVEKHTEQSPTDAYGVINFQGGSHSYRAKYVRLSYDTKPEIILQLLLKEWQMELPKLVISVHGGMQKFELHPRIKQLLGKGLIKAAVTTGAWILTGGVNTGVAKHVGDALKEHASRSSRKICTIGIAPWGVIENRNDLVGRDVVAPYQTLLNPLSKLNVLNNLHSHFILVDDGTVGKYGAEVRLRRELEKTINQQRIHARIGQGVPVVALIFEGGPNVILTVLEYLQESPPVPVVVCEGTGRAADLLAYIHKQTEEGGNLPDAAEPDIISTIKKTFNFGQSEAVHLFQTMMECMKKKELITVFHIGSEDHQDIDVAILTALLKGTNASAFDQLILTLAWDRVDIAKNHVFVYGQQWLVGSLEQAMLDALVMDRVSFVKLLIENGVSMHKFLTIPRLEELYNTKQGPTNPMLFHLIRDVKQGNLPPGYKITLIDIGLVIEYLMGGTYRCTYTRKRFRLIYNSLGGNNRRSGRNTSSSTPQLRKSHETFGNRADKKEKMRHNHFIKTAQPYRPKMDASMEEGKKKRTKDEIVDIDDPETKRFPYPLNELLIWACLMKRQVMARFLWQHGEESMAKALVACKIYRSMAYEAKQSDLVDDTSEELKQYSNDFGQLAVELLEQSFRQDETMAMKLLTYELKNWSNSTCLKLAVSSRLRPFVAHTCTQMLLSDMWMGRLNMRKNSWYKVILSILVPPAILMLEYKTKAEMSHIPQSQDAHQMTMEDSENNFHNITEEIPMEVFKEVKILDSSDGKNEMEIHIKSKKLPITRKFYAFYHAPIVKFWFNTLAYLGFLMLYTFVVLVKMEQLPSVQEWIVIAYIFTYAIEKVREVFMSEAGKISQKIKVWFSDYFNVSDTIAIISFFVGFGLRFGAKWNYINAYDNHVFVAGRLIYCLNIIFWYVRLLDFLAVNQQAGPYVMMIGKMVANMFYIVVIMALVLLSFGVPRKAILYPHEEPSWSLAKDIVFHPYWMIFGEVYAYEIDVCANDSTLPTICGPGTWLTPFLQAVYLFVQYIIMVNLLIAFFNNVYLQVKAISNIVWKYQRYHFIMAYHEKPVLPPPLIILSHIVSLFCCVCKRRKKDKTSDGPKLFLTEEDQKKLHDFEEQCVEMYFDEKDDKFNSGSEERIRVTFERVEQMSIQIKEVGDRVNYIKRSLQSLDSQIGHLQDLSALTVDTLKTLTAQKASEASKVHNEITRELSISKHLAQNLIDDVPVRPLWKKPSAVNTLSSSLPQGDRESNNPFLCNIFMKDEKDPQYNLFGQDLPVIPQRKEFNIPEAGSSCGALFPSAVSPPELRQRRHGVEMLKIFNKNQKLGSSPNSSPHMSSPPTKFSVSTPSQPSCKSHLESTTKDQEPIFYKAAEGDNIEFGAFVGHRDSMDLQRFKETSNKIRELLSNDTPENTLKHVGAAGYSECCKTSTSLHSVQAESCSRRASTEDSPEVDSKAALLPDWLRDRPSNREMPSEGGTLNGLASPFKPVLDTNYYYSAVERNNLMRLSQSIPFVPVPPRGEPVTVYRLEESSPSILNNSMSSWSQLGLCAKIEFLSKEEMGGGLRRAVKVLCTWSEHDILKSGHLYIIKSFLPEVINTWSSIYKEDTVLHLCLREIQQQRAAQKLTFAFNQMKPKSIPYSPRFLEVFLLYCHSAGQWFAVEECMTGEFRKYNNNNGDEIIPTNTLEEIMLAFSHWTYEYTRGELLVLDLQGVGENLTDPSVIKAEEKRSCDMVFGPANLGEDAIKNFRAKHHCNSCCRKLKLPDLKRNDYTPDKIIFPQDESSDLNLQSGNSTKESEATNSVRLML

SMILES | inhibition
COc1cccc2c1C(=O)c1c(O)c3c(c(O)c1C2=O)C[C@@](O)(C(C)=O)C[C@@H]3O[C@H]1C[C@H](N)[C@H](O)[C@H](C)O1 | Dose-dependent effect
COc1ccc(C[C@H]2NC[C@H](O)[C@H]2OC(C)=O)cc1 | Dose-dependent effect
COc1cc(/C=C/C(=O)N2CCC=CC2=O)cc(OC)c1OC | Dose-dependent effect
COc1cc2c(c(OC)c1OC)-c1ccc(OC)c(=O)cc1[C@@H](NC(C)=O)CC2 | Active
CCOc1ccc(Cc2nccc3cc(OCC)c(OCC)cc23)cc1OCC | Dose-dependent effect

same assay, conditions: concentration not given here

SMILES | inhibition [%]
COC(=O)c1scc(S(=O)(=O)C(C)C)c1N/N=C(\C#N)C(=O)c1ccccc1 | < 30
CCOC(=O)C(Nc1ccccc1)C(=O)OCC | 30
CCCCCCCCCc1c(O)c2ccccc2[nH]c1=O | 60
O=c1oc2cc(O)ccc2c(O)c1Cc1ccc(Cl)c(Cl)c1 | 80
O=C(NCc1cccs1)c1ccccc1 | < 30
O=C(c1sc2ccccc2c1Cl)N1CCc2ccccc2C1 | 70
Cc1ccc(NC(=O)c2cccc3c2-c2ccccc2C3)cc1 | < 30
CC1CN=C(N(CCc2ccccc2)C(=O)Nc2ccc(Cl)cc2)S1 (stereo not drawn) | < 30
COc1cc(C(=O)Oc2c(Cl)cc(Cl)cc2/C=N\c2cccc(C(F)(F)F)c2)cc(OC)c1OC | < 30
Oc1c(Cl)cc(Cl)cc1/C=N/c1ccc(Cl)cn1 | 40
O=C(NNC(=S)Nc1cc(Cl)ccc1Cl)c1ccccc1Cl | < 30
Cc1onc(-c2ccccc2Cl)c1C(=O)NNc1cccc(C(F)(F)F)n1 | < 30
CCOC(=O)c1cc(C)nn1C(=O)c1ccccc1Cl | 30
O=C(O)CSc1cc(C(F)(F)F)nc2ccccc12 | 30
COC(=O)c1cc(C)nc(Sc2ccccc2NC(=O)c2ccccc2)n1 | < 30
COc1ccc2nnc(-c3ccc(C(F)(F)F)cc3)n2n1 | < 30
CCc1cc2c(Sc3nnc(N)s3)ncnc2s1 | 60
O=C(O/N=C(\Cn1nnc(N2CCCCC2)n1)c1ccc(Cl)cc1)c1ccccc1Cl | < 30
CCOC(=O)C1=C(C)NC(=O)NC1c1cccc2ccccc12 (stereo not drawn) | < 30
CN(C)C=O.O=C(Nc1nnc(Sc2ccnc3cc(Cl)ccc23)s1)c1sc2ccccc2c1Cl | 80
COc1ccc(NC(=S)Nc2ccc(C)c(NS(C)(=O)=O)c2)cc1 | 70
CCCCCCCC(=O)NC1=NC2c3ccc(OC)cc3CCC2S1 (stereo not drawn) | 70

SMILES | inhibition [%]
CCc1c(O)c2ccccc2n(C)c1=O | 50
CC(C)NC(=S)Nc1ccc2c(c1)S(=O)(=O)C=C2 | < 30
Cc1cc(SCc2nnc(-c3ccc([N+](=O)[O-])c(C)c3)o2)c(C)cc1Cl | 80
Cc1onc(-c2ccccc2)c1-c1cnn(S(=O)(=O)c2ccc(Cl)cc2)c1 | 30
O=C(CSC1CN(C(c2ccccc2)c2ccccc2)C1)N/N=C/c1ccncc1 | 50
COc1ccc(CCNc2ccc(C(F)(F)F)cc2[N+](=O)[O-])cc1OC | 30
O=C(N/C=C/c1cccs1)Nc1ccc(Cl)cc1 | < 30
Oc1cc(C(F)(F)F)nc(SCc2ccccc2)n1 | 80
Cc1cccn2cc(-c3ccccc3Cl)nc12 | 30
Cc1csc2ncnc(N3CCN(S(=O)(=O)c4ccc(Cl)cc4)CC3)c12 | 70
CSC1=N/C(=C\c2ccccc2O)C(=O)N1Cc1ccco1 | < 30
Fc1ccc(N2CCN(Cc3c[nH]c(-c4ccccc4)n3)CC2)cc1 | 70
CSc1sc(Br)c2c1C(=O)CCC2 | < 30
O=C(Oc1ccc(Oc2ccccc2)cc1)N1CCC(OC(=O)n2ccnc2)CC1 | < 30
CC(=O)CSc1nnc(CN2C(=O)CSc3ccc(C(F)(F)F)cc32)n1C | < 30
Cc1c(-c2nc(-c3ccc([N+](=O)[O-])o3)no2)n(C)oc1=O | < 30
O=[N+]([O-])c1ccc(-n2ncc(-c3nc(-c4ccc(Cl)cc4)no3)c2C(F)(F)F)cc1 | < 30
COc1ccc(NC(=O)CSc2nnc(C)n2-c2ccc(OCc3ccccc3)cc2)cc1 | 50
O=S1(=O)CC=C(S(=O)(=O)c2ccccc2)C1 | < 30
COC(=O)C1=CNC(CC(CC=O)c2ccc(F)cc2)=CC1c1ccc(N(C)C)cc1Cl (stereo not drawn) | < 30
COc1cc2c(cc1OC)C(C(=O)c1sc3ccccc3c1Cl)=NCC2 | 80
Cc1cc2c(cc1C)CSC(C)(c1ccc(F)cc1)SC2 | < 30

SMILES | inhibition [%]
O=C(CC12CC3CC(CC(C3)C1)C2)N1CCOCC1 | < 30
Cc1ccc2c(c1)CCCN2C(=S)Nc1cccc(Cl)c1 | < 30
CC(=O)Nc1cc(C)ccc1C | < 30
C/C(=N\NC1=NCCN1Cc1ccccc1)c1ccc(C)cc1 | 70
CCCCCCCSc1nnc[nH]1 | 70
O=C(/C=C/c1cccs1)NC(=S)Nc1ccccc1Cl | < 30
CC(=O)N1N=C(c2ccccc2O)CC1c1ccc(Cl)cc1Cl (stereo not drawn) | < 30
COc1ccccc1N1CCN(Cc2c[nH]c(-c3ccccc3)n2)CC1 | < 30
Clc1ccc(CO/N=C/c2nc3ccccc3s2)cc1 | 40
CCCC1c2ccsc2CCN1C(=S)Nc1ccc(Cl)cc1Cl (stereo not drawn) | 40
N/C(=N\OC(=O)c1ccc(OCC(F)(F)F)nc1)c1ccc(OC(F)(F)F)cc1 | < 30
O=S(=O)(NCc1cccs1)c1ccc(Sc2ncc(C(F)(F)F)cc2Cl)s1 | < 30
O=C(NNC(=S)Nc1ccc2c(c1)CCCO2)c1ccco1 | < 30
CO[C@@H]1O[C@@H]2CO[C@H](COC(C)=O)[C@]3(OC(C)=O)CO[C@H](OC2[C@H](OC(C)=O)[C@H]1OC(C)=O)[C@@H](OC(C)=O)[C@@H]3OC(C)=O (stereo partly drawn) | 40
Cc1cc(OCc2c(C)c(C)c(C)c(C)c2C)c2c(Cl)ccc(C)c2n1 | 40
CNC(=O)c1cc([N+](=O)[O-])cc2c1-c1ccc([N+](=O)[O-])cc1C2=O | < 30
CCNC(=O)C(Cc1ccccc1)NC(=O)OC(C)(C)C (stereo not drawn) | 30
Cc1csc(-c2nc(-c3ccc(Cl)cc3)no2)c1Cl | < 30
N#Cc1ccc(NS(=O)(=O)c2ccc3ccccc3c2)cc1 | 40
CC(C)(C)c1ccc(N2C(=N)SCC2=O)cc1 | 40
O=C1CC2Sc3ccccc3N=C2N1Cc1ccccn1 (stereo not drawn) | < 30
O=C1/C(=C\c2ccc3c(c2)OCO3)C(c2ccccc2)Oc2ccccc21 (stereo not drawn) | 50

SMILES | inhibition [%]
C/C=C(\C)C(=O)Nc1nncs1 | < 30
CC(C)(C)c1ccc(NC(=O)/C=C/C(=O)O)cc1 | < 30
CCOC(=O)c1sc2nc(C)c(/N=N/c3ccccc3)c(C)c2c1N | < 30
CC(=O)c1ccc(Nc2cc(C)nc3ccccc23)cc1 | < 30
CC(c1ccco1)N(C(=O)c1sc2ccccc2c1Cl)c1ccccn1 (stereo not drawn) | < 30
NNC(=O)CSc1ccccc1[N+](=O)[O-] | 40
OC(COc1ccc(F)cc1)CN1CCN(Cc2c(F)cccc2Cl)CC1 (stereo not drawn) | 30
O=C(Nc1ccccc1)OCCSCc1ccc2nc(C(F)(F)F)ccc2c1 | 60
O=C(O)C1Cc2ccccc2CN1 (stereo not drawn) | < 30
CCc1ccc2[nH]c(C(=O)N(C)c3ccc(F)cc3F)cc2c1 | < 30
[O-][S+](c1ccc(Cl)cc1)c1ccc(-c2ccccn2)s1 (stereo not drawn) | < 30
O=S(=O)(c1cccc(Cl)c1)N1CCC(O)(c2ccc(Cl)cc2)CC1 | 70
CC(=O)/C(C#N)=C/c1ccco1 | < 30
Cc1ccc(Oc2ccc(C(F)(F)F)cc2[N+](=O)[O-])c2c1CCC2 | < 30
O=C(Nc1cccc(C(F)(F)F)c1)Nc1nnc(C2CC2)s1 | 50
Cc1cc(C)cc(N/C=C(\C#N)S(=O)(=O)c2ccc(Cl)cc2)c1 | < 30
Cc1ccc(C(=O)Nc2ccc3c(c2)CS(=O)(=O)C3)cc1 | < 30
CC(=O)OC[C@H](OC(C)=O)[C@@H](OC(C)=O)[C@@H](OC(C)=O)[C@H](OC(C)=O)c1nnn[nH]1 | < 30
CC(C)NC(=O)n1nccc1-c1cc(-c2ccccc2)no1 | < 30
COc1ccc(-c2n[nH]cc2CN2CCN(c3ccccc3OC)CC2)cc1 | < 30
c1ccc(/N=c2/[n-]n(-c3ccccc3)c[n+]2-c2ccccc2)cc1 | < 30
CC(C)(C)c1cc(C(=O)/C(C#N)=N/Nc2cccc(Cl)c2)no1 | 70

SMILES | inhibition [%]
Cc1ccc(OC/C(N)=N/OC(=O)c2cc(C)on2)cc1 | < 30
Cc1c(C)c(C)c(CN2CCOC(c3ccccc3)C2C)c(C)c1C (stereo not drawn) | < 30
COc1ccc(/C=N/NS(=O)(=O)c2ccc(Cl)cc2)cc1OC | 80
O=C(/C=N/O)Nc1ccccc1F | < 30
CCCCCNC(=S)NNC(=O)OCC | 60
O=C1c2ccccc2C(=O)N1Cc1cccc(I)c1 | 40
O=C(Nc1ccc(OC(F)(F)F)cc1)Nc1cc(-c2ccccc2)n[nH]1 | < 30
COc1ccccc1C1CCN(C(=O)CSCc2cccc3ccccc23)CC1 | 80
OC(CN1CCN(C(c2ccccc2)c2ccccc2)CC1)c1ccccc1 (stereo not drawn) | 60
O=[N+]([O-])C1=Cc2c(ccc3ccccc23)OC1c1c(Cl)cccc1Cl (stereo not drawn) | 60
O=C(Nc1ccc(Cl)cc1)OCc1noc(-c2cccs2)n1 | 70
N#CCc1nn(-c2ccccc2)c(/N=C/c2cc(Cl)cc(Cl)c2O)c1C#N | 60
O=C(Nc1ccc2ccccc2n1)c1ccc(Cl)cc1 | 50
COc1ccc(C(=O)Nc2c(-c3ccc(Br)cc3)c(C(F)(F)F)nn2C)cc1OC | < 30
O=C(NC(=O)c1c(Cl)cccc1Cl)Nc1nc2cc(Cl)ccc2s1 | 50
O=[N+]([O-])c1cccc(-c2ccc(/C=N/NC(=S)NCc3ccco3)o2)c1 | < 30
FC(F)(F)c1ccc(C2c3ccsc3CCN2C(=S)Nc2ccc(Cl)cc2Cl)cc1 (stereo not drawn) | 70
O=C(Sc1ccc(C(F)(F)F)cn1)c1ccc(Cl)cc1 | < 30
N#Cc1ccc2[nH]cc(CCN(Cc3ccccc3)Cc3ccccc3)c2c1 | < 30
CCOC(=O)C(=CNNC(=O)c1cnn(-c2ccc([N+](=O)[O-])cc2)c1C(F)(F)F)C(=O)OCC | 90
